Measured values published in article PMC5972026 (Journal of medicinal chemistry, 2017).
“Also recorded” adds a separate entry of the source. Counter-ions that a name gives are not always drawn.

Columns and labels:
[1] = target: A/M2 wt channel (A/Udorn/72) (Influenza A virus, UniProt P0DOF5); experiment: cell-based; assay type: cell-based
[2] = tested on: A/HK/7/87 virus (H3N2 subtype), wt M2; assay type: cell-based, influenza A virus
[3] = tested on: A/HK/7/87 virus (H3N2 subtype), wt M2; assay type: cell-based, influenza A virus; remark: listed apart in the source
MDCK cells = conditions: 100 μM

Sequence of A/M2 wt channel (A/Udorn/72) (P0DOF5 whole entry, looked up): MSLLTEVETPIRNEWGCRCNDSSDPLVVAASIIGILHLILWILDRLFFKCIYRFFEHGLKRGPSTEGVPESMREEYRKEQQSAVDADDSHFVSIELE

Structure (SMILES)	Binding behaviour [1]	Reversibility of inhibition [1]	Antiviral activity confirmed in virus yield assay [2]	Antiviral activity in the PRA [3]	Time after which compound dissociated from the channel [1] [min]	inhibition at 100 µM ([1]; read-out: Inhibition after 6 min of treatment, 100 μM, 6 min) [%]	Cytotoxicity at highest concentration tested (MDCK cells)
C1CC(C23CC4CC(CC(C4)C2)C3)CCN1 [Compound 2, 4-(1-adamantyl)piperidine hydrochloride]	strong binder	essentially irreversible	confirmed	active	–	–	–
N=C(N)N1CCC(CC2C3CC4CC(C3)CC2C4)CC1 (stereo not drawn) [Compound 20, 4-[(adamantan-2-yl)methyl]piperidine-1-carboximidamide hydrochloride]	weak binding affinity	–	–	did not display antiviral activity	–	–	–
N=C(N)N1CCC(C23CC4CC(CC(C4)C2)C3)CC1 [Compound 7, N-amidyl-4-(1-adamantyl)piperidine hydrochloride]	weak binding affinity; also recorded: fast and weak binder	–	–	did not display antiviral activity	5	–	–
N=C(N)N1CCC(C=C2C3CC4CC(C3)CC2C4)CC1 [Compound 19, 4-[(adamantan-2-ylidene)methyl]piperidine-1-carboximidamide hydrochloride]	weak binding affinity	–	–	did not display antiviral activity	–	–	–
Cl.OC1(CC2CCNCC2)C2CC3CC(C2)CC1C3 (stereo not drawn) [Compound 15, 2-(piperidin-4-ylmethyl)adamantan-2-ol hydrochloride]	–	–	–	active	–	–	–
C1CCC(C23CC4CC(CC(C4)C2)C3)NC1 (stereo not drawn) [Compound 8, 2-(1-adamantyl)piperidine hydrochloride]	strong binders; also recorded: very slow but strong binding	essentially irreversible	confirmed	active	–	> 90	devoid of cytotoxicity
